Experimental findings from patent publication US20210128536A1, “WEAKLY BASIC DRUG AND IONIC POLYMER PHARMACEUTICAL FORMULATIONS AND METHODS OF FORMATION AND ADMINISTRATION THEREOF” (DISPERSOL TECHNOLOGIES, LLC, priority 2019, published 2021) are described below.

The series can be described thus: Thermal stability by thermogravimetric analysis (TGA). It is filed as physicochemical. The conditions noted are these: at relevant processing temperatures (<250° C.). As to the method:
Prior to thermokinetic processing, thermal stability of BI 667 was assessed using thermogravimetric analysis (TGA). BI 667 was considered stable (<1% mass loss on TGA) at relevant processing temperatures (<250° C.). […] (data not shown). […] Thus, a max processing temperature (and therefore ejection set point temperature) of the mixture was set at 160° C. TGA was performed on a TGA/DSC 1 (Mettler Toledo, Schwerzenbach, Switzerland). The temperature ramp utilized in this study was performed from 25 to 300° C. at a rate of 5° C./min with a nitrogen purge of 50 mL/min. Data were analyzed using STARE System.

For the compound `CS(=O)(=O)c1cc(C2(NC(=O)c3cncc4c3cnn4-c3ccc(F)cc3)CC2)ccn1` [BI 667], the “mass loss on TGA” value is given as below 1%.
